Patent US20010036460A1, “Targeted death cancer cells” (priority 2000, published 2001)

Tests used:
[1] = tested on: LNCaP cells stably transfected with the plasmid p22EDT1; assay: Trypan blue exclusion cell viability assay after 48 hours culture with 4-OHT (FIG. 3); type: cell-based, human; conditions: 4-OHT of varying concentrations
Experimental: FIG. 3. […] Parental LNCAP cells (blue) and LNCaP cells stably transfected with the plasmid p22EDT1 (red) were cultured in the presence of 4-OHT of varying concentrations for 48 hours after which the trypan blue exclusion assay was used to assess cell viability. p22EDT1 contains an SV40 promoter driving an FLP-ERt gene sequence and a CMV promoter driving a DT-A sequence disrupted by an FRT-puro/pA-FRT cassette.

[2] = tested on: PC-3 cells co-infected with the bcl2/FLP-ERt and RSV/FRT2puroDT-A containing adenoviruses; assay: In vitro test of gene therapy system: viable and clonogenic cell number after 4-OHT; type: cell-based, human; conditions: co-infected PC-3 cells, 4-OHT-treated versus non-treated cultures; 1, 2, 3 μM, 48 hours
Experimental: PC-3 cells are co-infected with the bcl2/FLP-ERt and RSV/FRT2puroDT-A containing adenoviruses. Cell death resulting from administration of the synthetic ligand 4-hydroxytamoxifen (4-OHT) is tested in cultured cells. Adenoviral infection is carried out by the addition of viral solutions of varying ratios of the two viruses and at varying degrees of multiplicity of infection to cell monolayers. After three hours of exposure to virus, the medium is changed and cells are incubated in fresh medium containing 4-OHT. Three concentrations of 4-OHT are tested: 1, 2, and 3 μM. After 48 hours incubation with 4-OHT, the number of viable cells are determined using the Trypan blue exclusion assay and the MTT assay (8). Since DT-A kills irreversibly by both apoptosis, as well as nonapoptotic pathways (39), the number of apoptotic cells is also determined. In addition, the growth potential of cells following treatment with tamoxifen is determined using a clonogenic assay (8).
In infected cells, the binding of 4-OHT to the FLP-ERt fusion protein will activate FLP. This in turn will result in recombinational excision of the FRT-puropA-FRT sequence, expression of the DT-A subunit, and cell death. […] Control infections are done with the RSV/FRT2puroDT-A virus alone and with the RSV/puro virus. […]

PC-3 xenografts = assay: In vivo test of gene therapy system: PC-3 xenograft tumor volume after 4-OHT; design: species or system male BALB/c nu/nu athymic mice
Experimental: To further test the efficacy of the regulated recombination system for targeting DT-A to bcl-2 expressing cells, xenografts are generated in male BALB/c nu/nu athymic mice by the subcutaneous injection of PC-3 cells (38,40,42). To generate tumors, […] are mixed with Matrigel basement membrane matrix and injected subcutaneously into the flank of a mouse (38). When tumors reach a volume of about 50 mm^3, a mixture of bcl2/FLP-ERt and RSV/FRT2puroDT-A containing virus is injected directly into the tumor site. A 1:1 ratio of the two viruses is maintained, while the total number of plaque forming units varies (10^9, 5×10^9, and 10^10). Twenty-four hours after injection of the virus, 4-OHT is administered to the host mice either by a single injection directly into the tumor (100 μl of a 3 μM solution in PBS) or by intraperitoneal injection on five consecutive days (1 mg in 100 μl sunflower seed oil). At one, two, and three weeks following the administration of 4-OHT, mice are euthanized, tumors are excised, and their volume and wet weight determined. Tumor volume is calculated by multiplying caliper measurements of length, width, and depth and then multiplying by 0.5236 (23). […] Tumors are fixed and processed for histopathological examination. Other control groups in this study are xenografts infected only with the RSV/FRT2puroDT-A virus and xenografts injected only with PBS.

4-hydroxytamoxifen [4-OHT]
cell viability (DTA expression and cell death) [1]: results in DTA expression and cell death | number of viable and clonogenic cells [2]: significantly reduced | tumor size (PC-3 xenografts; control xenografts infected only with the RSV/FRT2puroDT-A virus or injected only with PBS): no effect on tumor size | tumor volume (PC-3 xenografts; xenografts injected with 1:1 mixture of bcl2/FLP-ERt and RSV/FRT2puroDT-A virus, 4-OHT intratumoral or intraperitoneal, versus vehicle-treated control mice): significantly less
